Where two headings read alike, the source gives them in different places. Starred links: 1 amine or outer side, 2 acyl side, 3 side chain; linkers in the order of their positions; H or OH if unused. Non-standard residues stand in square brackets, D forms with d. Residues, ends and D or L forms follow the SMILES beside them. Groups on a side chain read outwards from the residue. *: point of attachment. C18 diacid = O=C(O)CCCCCCCCCCCCCCCCC(=O)*; γGlu = O=C(O)[C@H](CCC(=O)[*:2])N[*:1]; εLys = N[C@@H](CCCCN[*:1])C(=O)[*:2]; AEEA = NCCOCCOCC(=O)O; Aib = CC(C)(N)C(=O)O
What was measured:
[1] = target: human GLP-1 receptor (Homo sapiens, UniProt P43220); assay: In vitro functional potency, CRE luciferase reporter, whole BHK cells (hGLP-1R); format: cell-based; design: expressed in transfected cells; host or cells: BHK (parent line BHKTS13), clone BHK CRE luc2P hGLP-1R; settings: BHK CRE luc2P hGLP-1R cells
Sequence of human GLP-1 receptor (P43220 24-463): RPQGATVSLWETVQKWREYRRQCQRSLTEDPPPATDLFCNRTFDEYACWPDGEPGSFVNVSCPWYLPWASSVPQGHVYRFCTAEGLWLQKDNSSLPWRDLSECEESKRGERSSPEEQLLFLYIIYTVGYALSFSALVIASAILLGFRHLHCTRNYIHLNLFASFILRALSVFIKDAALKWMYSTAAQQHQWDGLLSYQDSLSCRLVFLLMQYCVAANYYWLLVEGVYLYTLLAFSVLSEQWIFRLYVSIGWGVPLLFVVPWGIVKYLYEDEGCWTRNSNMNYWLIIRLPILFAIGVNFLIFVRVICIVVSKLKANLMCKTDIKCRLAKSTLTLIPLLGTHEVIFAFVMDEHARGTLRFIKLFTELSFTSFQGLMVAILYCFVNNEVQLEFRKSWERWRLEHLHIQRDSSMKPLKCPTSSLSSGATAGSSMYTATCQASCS
Description: (§1) The in vitro functional potency is the measure of target receptor activation in a whole cell assay.
(§2) In vitro functional potency was determined by measuring the response of the target receptor in a reporter gene assay in individual cell lines. […] When the respective receptor is activated, it results in the production of cAMP, which in turn results in expression of the luciferase protein. When assay incubation is completed, luciferase substrate (luciferin) is added resulting in the enzymatic conversion of luciferin to oxyluciferin and producing bioluminescence. The luminescence is measured as the readout for the assay.
(§3) The cells lines used in these assays were BHK cells with BHKTS13 as a parent cell line. The cell lines were derived from a clone containing the CRE luciferase element and were established by further transfection with the respective human receptor to obtain the relevant cell line: BHK CRE luc2P hGLP-1R or BHK CRE luc2P hGIPR. The cells were cultured at 37° C. with 5% CO2 in Cell Culture Medium. They were aliquoted and stored in liquid nitrogen. The cells were kept in continuous culture and were seeded out the day before each assay.
(§4) GLP-1R Cell Culture Medium consisted of DMEM medium with 10% FBS, 500 µg/mL G418, and 300 µg/mL hygromycin. GIPR Cell Culture Medium consisted of DMEM medium with 10% FBS, 400 µg/mL G418, and 300 µg/mL hygromycin. Assay Buffer consisted of DMEM w/o phenol red, 10 mM Hepes, 1× Glutamax. 1% ovalbumin, and 0.1% Pluronic F-68 with the addition of HSA at twice the final assay concentration.
(§5) 1) Cells were plated at 5000 cells/well and incubated overnight in the assay plate. 2) Cells were washed once in DPBS. 3) Stocks of the test compounds and reference compounds in concentrations ranging from […] were diluted 1:150 in Assay Buffer. Compounds were then diluted 1:10 in column 1 of a 96 deep well dilution plate and then carried across the row creating a 3.5 fold, 12 point dilution curve. 4) Assay Buffer (50 μl aliquot) with or without HSA was added to each well in the assay plate. 5) A 50 μl aliquot of compound or blank was transferred from the dilution plate to the assay plate containing the Assay Buffer with or without HSA. 6) The assay plate was incubated for 3 h in a 5% CO2 incubator at 37° C. 7) The cells were washed once with DPBS. 8) A 100 μl aliquot of DPBS was added to each well of the assay plate. 9) A 100 μl aliquot of steadylite plus reagent (light sensitive) was added to each well of the assay plate. 10) Each assay plate was covered with aluminum foil to protect it from light and shaken at 250 RPM for 30 min at room temperature. 11) Each assay plate was read in a microtiter plate reader.
(§6) The data from the microtiter plate reader was first regressed in an Excel in order to calculate the x-axis, log scale concentrations based on the individual test compound's stock concentration and the dilutions of the assay. […] The software performs a non-linear regression (log(agonist) vs response). A minimum of two replicates was measured for each sample. The reported values are averages of the replicates.

[2] = target: T1, human GIP receptor (Homo sapiens, UniProt P48546); assay: In vitro functional potency, CRE luciferase reporter, whole BHK cells (hGIPR); format: cell-based; settings: BHK CRE luc2P hGIPR cells
T1 construct: expressed in transfected cells; host or cells: BHK (parent line BHKTS13), clone BHK CRE luc2P hGIPR
T1 sequence (P48546 22-466): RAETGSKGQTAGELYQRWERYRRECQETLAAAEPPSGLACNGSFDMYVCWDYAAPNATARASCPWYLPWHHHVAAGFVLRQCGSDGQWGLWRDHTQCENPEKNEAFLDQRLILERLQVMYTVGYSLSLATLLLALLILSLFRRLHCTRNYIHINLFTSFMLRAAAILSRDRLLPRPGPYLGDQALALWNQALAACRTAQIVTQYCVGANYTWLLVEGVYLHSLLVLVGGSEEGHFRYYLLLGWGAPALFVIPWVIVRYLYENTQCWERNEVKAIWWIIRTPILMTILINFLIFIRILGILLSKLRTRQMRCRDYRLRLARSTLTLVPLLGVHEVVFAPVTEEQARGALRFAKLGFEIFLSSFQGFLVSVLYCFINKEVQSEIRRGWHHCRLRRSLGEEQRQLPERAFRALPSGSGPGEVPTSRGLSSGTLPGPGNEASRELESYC
Description: as §1, §2, §3, §4, §5, §6

[3] = 0% HSA, read-out: hGLP-1R, CRE Luc 0% HSA EC50
[4] = hGLP-1R, CRE Luc 1% HSA EC50, 1% HSA
[5] = 0% HSA, read-out: hGIPR, CRE Luc 0% HSA EC50
[6] = hGIPR, CRE Luc 1% HSA EC50, 1% HSA

Row | Structure (SMILES) | EC50 [1, 3] [nM] | EC50 [1, 4] [nM] | EC50 [2, 5] [nM] | EC50 [2, 6] [nM]
1 | CC[C@H](C)[C@H](NC(=O)[C@H](Cc1ccccc1)NC(=O)[C@H](CCC(=O)O)NC(=O)[C@H](CCCNC(=N)N)NC(=O)[C@H](C)NC(=O)[C@H](C)NC(=O)[C@H](CCC(N)=O)NC(=O)[C@H](CCCCNC(=O)[C@@H](N)CCCCNC(=O)[C@@H](N)CCCCNC(=O)CC[C@H](NC(=O)CCCCCCCCCCCCCCCCC(=O)O)C(=O)O)NC(=O)[C@H](CCC(=O)O)NC(=O)[C@H](CC(C)C)NC(=O)[C@H](CC(C)C)NC(=O)[C@@H](NC(=O)[C@H](CO)NC(=O)[C@H](Cc1ccc(O)cc1)NC(=O)[C@H](CC(=O)O)NC(=O)[C@H](CO)NC(=O)[C@@H](NC(=O)[C@@H](NC(=O)[C@@H](NC(=O)CNC(=O)[C@H](CCC(=O)O)NC(=O)C(C)(C)NC(=O)[C@@H](N)Cc1ccc(O)cc1)[C@@H](C)O)C(C)C)[C@@H](C)O)[C@@H](C)CC)C(=O)N[C@@H](CC(N)=O)C(=O)N[C@@H](Cc1c[nH]c2ccccc12)C(=O)N[C@@H](CC(C)C)C(=O)N[C@@H](CC(C)C)C(=O)N[C@@H](C)C(=O)NCC(=O)NCC(=O)N1CCC[C@H]1C(=O)N[C@@H](CO)C(=O)N[C@@H](CO)C(=O)NCC(=O)N[C@@H](C)C(=O)N1CCC[C@H]1C(=O)N1CCC[C@H]1C(=O)N1CCC[C@H]1C(=O)N[C@@H](CO)C(=O)O [Compound 33] (H-Y[Aib]EGTVTSDYSILLEK([εLys-εLys-γGlu-C18 diacid])QAAREFINWLLAGGPSSGAPPPS-OH) | 0.0148 | 0.361 | 0.0029 | 0.103
2 | CC[C@H](C)[C@H](NC(=O)[C@H](Cc1ccccc1)NC(=O)[C@H](CCC(=O)O)NC(=O)[C@H](CCCNC(=N)N)NC(=O)[C@H](C)NC(=O)[C@H](C)NC(=O)[C@H](CCC(N)=O)NC(=O)[C@H](CCC(=O)O)NC(=O)[C@H](CCC(=O)O)NC(=O)[C@H](CC(C)C)NC(=O)[C@H](Cc1ccc(O)cc1)NC(=O)[C@H](CCCCNC(=O)[C@@H](N)CCCCNC(=O)[C@@H](N)CCCCNC(=O)CC[C@H](NC(=O)CCCCCCCCCCCCCCCCC(=O)O)C(=O)O)NC(=O)[C@H](CO)NC(=O)[C@H](Cc1ccc(O)cc1)NC(=O)[C@H](CC(=O)O)NC(=O)[C@H](CO)NC(=O)[C@@H](NC(=O)[C@H](Cc1ccccc1)NC(=O)[C@@H](NC(=O)CNC(=O)[C@H](CCC(=O)O)NC(=O)C(C)(C)NC(=O)[C@@H](N)Cc1ccc(O)cc1)[C@@H](C)O)[C@@H](C)O)C(=O)N[C@@H](CC(N)=O)C(=O)N[C@@H](Cc1c[nH]c2ccccc12)C(=O)N[C@@H](CC(C)C)C(=O)N[C@@H](CC(C)C)C(=O)N[C@@H](C)C(=O)NCC(=O)NCC(=O)N1CCC[C@H]1C(=O)N[C@@H](CO)C(=O)N[C@@H](CO)C(=O)NCC(=O)N[C@@H](C)C(=O)N1CCC[C@H]1C(=O)N1CCC[C@H]1C(=O)N1CCC[C@H]1C(=O)N[C@@H](CO)C(=O)O [Compound 41] | 0.0012 | 0.0314 | 0.0049 | 0.0793
3 | CC[C@H](C)[C@H](NC(=O)[C@H](Cc1ccccc1)NC(=O)[C@H](CCC(=O)O)NC(=O)[C@H](CCCNC(=N)N)NC(=O)[C@H](C)NC(=O)[C@H](C)NC(=O)[C@H](CCC(N)=O)NC(=O)[C@H](CCCCNC(=O)COCCOCCNC(=O)COCCOCCNC(=O)CC[C@H](NC(=O)CCCCCCCCCCCCCCCCC(=O)O)C(=O)O)NC(=O)[C@H](CCC(=O)O)NC(=O)[C@H](CC(C)C)NC(=O)[C@@H](NC(=O)[C@@H](NC(=O)[C@H](CO)NC(=O)[C@H](Cc1ccc(O)cc1)NC(=O)[C@H](CC(=O)O)NC(=O)[C@H](CO)NC(=O)[C@@H](NC(=O)[C@H](Cc1ccccc1)NC(=O)[C@@H](NC(=O)CNC(=O)[C@H](CCC(=O)O)NC(=O)C(C)(C)NC(=O)[C@@H](N)Cc1ccc(O)cc1)[C@@H](C)O)[C@@H](C)O)[C@@H](C)CC)[C@@H](C)CC)C(=O)N[C@@H](CC(N)=O)C(=O)N[C@@H](Cc1c[nH]c2ccccc12)C(=O)N[C@@H](CC(C)C)C(=O)N[C@@H](CC(C)C)C(=O)N[C@@H](C)C(=O)NCC(=O)NCC(=O)N1CCC[C@H]1C(=O)N[C@@H](CO)C(=O)N[C@@H](CO)C(=O)NCC(=O)N[C@@H](C)C(=O)N1CCC[C@H]1C(=O)N1CCC[C@H]1C(=O)N1CCC[C@H]1C(=O)N[C@@H](CO)C(=O)O [Compound 36] (H-Y[Aib]EGTFTSDYSIILEK([AEEA-AEEA-γGlu-C18 diacid])QAAREFINWLLAGGPSSGAPPPS-OH) | 0.0047 | 0.414 | 0.0055 | 0.356
4 | CC[C@H](C)[C@H](NC(=O)[C@H](Cc1ccccc1)NC(=O)[C@H](CCC(=O)O)NC(=O)[C@H](CCCNC(=N)N)NC(=O)[C@H](C)NC(=O)[C@H](C)NC(=O)[C@H](CCC(N)=O)NC(=O)[C@H](CCCCNC(=O)[C@@H](N)CCCCNC(=O)[C@@H](N)CCCCNC(=O)CC[C@H](NC(=O)CCCCCCCCCCCCCCCCC(=O)O)C(=O)O)NC(=O)[C@H](CCC(=O)O)NC(=O)[C@H](CC(C)C)NC(=O)[C@@H](NC(=O)[C@@H](NC(=O)[C@H](CO)NC(=O)[C@H](Cc1ccc(O)cc1)NC(=O)[C@H](CC(=O)O)NC(=O)[C@H](CO)NC(=O)[C@@H](NC(=O)[C@H](Cc1ccccc1)NC(=O)[C@@H](NC(=O)CNC(=O)[C@H](CCC(=O)O)NC(=O)C(C)(C)NC(=O)[C@@H](N)Cc1ccc(O)cc1)[C@@H](C)O)[C@@H](C)O)[C@@H](C)CC)[C@@H](C)CC)C(=O)N[C@@H](CC(N)=O)C(=O)N[C@@H](Cc1c[nH]c2ccccc12)C(=O)N[C@@H](CC(C)C)C(=O)N[C@@H](CC(C)C)C(=O)N[C@@H](C)C(=O)NCC(=O)NCC(=O)N1CCC[C@H]1C(=O)N[C@@H](CO)C(=O)N[C@@H](CO)C(=O)NCC(=O)N[C@@H](C)C(=O)N1CCC[C@H]1C(=O)N1CCC[C@H]1C(=O)N1CCC[C@H]1C(=O)N[C@@H](CO)C(=O)O [Compound 34] (H-Y[Aib]EGTFTSDYSIILEK([εLys-εLys-γGlu-C18 diacid])QAAREFINWLLAGGPSSGAPPPS-OH) | 0.006 | 0.186 | 0.0083 | 0.213

Reference: patent publication US20220177538A1, “CO-AGONISTS AT GLP-1 AND GIP RECEPTORS SUITABLE FOR ORAL DELIVERY” (Novo Nordisk A/S, priority 2020, published 2022)
